What was measured:
activated caspase-3 = experiment: Activated caspase-3 profiles at the periphery of the stroke; type: in vivo, rat; conditions: standardized area on the periphery of the stroke
Procedure: A photothrombotic stroke model was used to generate unilateral ischemic lesions centered in the forelimb motor area of the cortex. The infarct area was determined using stereotaxic coordinates and was verified by histological analysis. Lesions were restricted to one hemisphere and included the caudal forelimb area of the primary motor cortex along with varying amounts of adjacent cortex (FIG. 10A and FIGS. 15 and 16). Lesion size varied among animals in each group, but there were no systematic between-group differences (lesion size [in pixels]=85.4±8.2 d [mean±S.E.M] for the saline-treated group and 81.1±8.6 for the inosine-treated group: difference not significant). […] This conclusion is further supported by the absence of any difference between inosine- and saline-treated cases in the number and size of profiles expressing activated caspase-3, as quantified focally in a standardized area on the periphery of the stroke (Caspase-3 profiles in saline-treated group=11.8±1.1, and in inosine treated group=11.9±1.5).

[1] = tested on: corticospinal tract (CST) axons; experiment: BDA tracing of CST axons in sham-operated animals (no brain injury); type: in vivo, rat; conditions: sham surgery, 4 weeks treatment
Procedure: In groups treated for four weeks after stroke, animals were re-anesthetized, the infusion needle and pump were removed, and a craniotomy was performed over the uninjured SMA. The anterograde tracer bioti-nylated dextran amine (BDA: Molecular Probes: 10% wt/vol in sterile saline) was injected stereotaxically at depths of 0.5, 1.0, and 2.0 mm below the cortical surface at 18 standardized points distributed over the sensorimotor cortex (70 nl per injection; Nano-ject, Drummond Scientific, Broomall, Pa.). Two weeks later, animals were anesthetized and perfused transcardially with 0.9% saline followed by 4% paraformaldehyde. The brain and spinal cord were dissected and post-fixed overnight in 4% paraformaldehyde, followed by 10% and 30% sucrose solutions over the next few days. Tissue was em-bedded in OCT Tissue Tek Medium (Sakura Finetek USA Inc., CA) and frozen on dry ice. […] Six to ten sections spanning a distance of 1.2 mm were examined and quantified for (a) BDA-labeled axon profiles ≧40 μm in length within the dorsal funiculus on the denervated side of the spinal cord (ipsilateral to the BDA injection and contralateral to the injury); (b) BDA+axons≧40 μm in length in the gray matter of the denervated side of the spinal cord, and (c) BDA+axons≧200 μm in length on the denervated side. […] Average numbers of axons were calculated and converted to axons per mm of spinal cord. […]

With `OC[C@H]1O[C@@H](n2cnc3c(O)ncnc32)[C@H](O)[C@@H]1O` [inosine] the Caspase-3 profiles (activated caspase-3) was 11.9±1.5 and the “labeled CST axons in spinal grey matter ipsilateral to the labeled hemisphere” value [1] was 77.5±9.0 axons/mm.

Source: patent publication US8912144B2, “Method for treating stroke via administration of NEP1-40 and inosine” (Children's Medical Center Corporation, priority 2003, dated 2014)
